Reference: patent publication US8673852B2, “Methods of treating neuronal disorders using MNTF peptides and analogs thereof” (Genervon Biopharmaceuticals, LLC, priority 2006, dated 2014)

Key:
[1] = system: embryonic stem cells; test: Differentiation of embryonic stem cells into motor neurons in vitro; type: cell-based, murine
[2] = system: stem cell derived motor neurons; test: Survival of stem cell derived motor neurons; type: cell-based; settings: compared with MNTF 33mer
[3] = system: SH-SY5Y cells; test: Cell culture model of Parkinson's disease: SH-SY5Y cell viability (MTT) with or without salsolinol; type: cell-based, human; settings: for Viability (% Cells) Mean ± SD: Salsolinol 100 μM alone, 24 h, MTT
Description: SH-SY5Y cells were purchased from American Type Culture Collection (Manassas, Va.) and cultured in a complete media containing minimum essential media, Hams F-12 media and Hanks Balanced Salt Solution Gibco-BRL) in a ratio of 2:1:1. The media also contained 10% fetal bovine serum along with penicillin (50 U/ml) and streptomycin ([…]). The cells were cultured in flasks and kept in a humidified incubator containing 5% CO2 in air at 37° C. The media was changed every 2-3 days.
Prior to manipulation, cultures were assigned to different treatment groups based on a randomized block design.
For cell viability experiments, SH-SY5Y cells (0.5×10^5/well) were cultured in a 96-well cell culture plate and treated with (±) SAL (Sigma, St. Louis, Mo.) alone or along with different concentrations of (GM6) (Genervon), with or without Wortmannin (WRT) (Sigma, St. Louis, Mo.), a phosphatidylinositol-3-kinase (PI-3 kinase) inhibitor, for 24 h. Cell viability was determined by Thiazolyl blue (MTT) assay.

## LGTFWGDTLNCWMLSAFSRYARCLAEGHDGPTQ (LGTFWGDTLNCWMLSAFSRYARCLAEGHDGPTQ) [33-mer]
[1]; in conjunction with a low concentration of RA
  differentiation of ES cells into motor neurons: induced differentiation

## MLSAFSRYAR [MNTF 10mer]
[1]; in vitro
  concentrations at which at least as effective as the full-length MNTF 33mer at stimulating differentiation of embryonic stem cells into motor neurons: ≥ 0.01 µg/mL
[2]
  enhancing the survival of stem cell derived motor neurons: nearly as effective as the MNTF 33mer

## C[C@@H]1NCCc2cc(O)c(O)cc21 [Salsolinol, reference compound]
[3]
  Viability (% Cells) Mean ± SD: 36.48 ± 12.78%
[3]; listed as SAL
  Viability (% Cells) Mean ± SD: 36.5%
[3]; salsolinol 100 μM, 24 hour treatment
  decrease in the number of cells: 63.7%
